Measurements from patent publication US5880258A (dated 1999).
“Also recorded” adds a separate entry of the source. *1 amine or outer side, *2 acyl side, *3 side chain or, on linkers, in order; H or OH if unused. Where a SMILES comes first, the peptide text is derived from it. Where no end group is shown, it is not given here. [ ]: non-standard residue; d: D form. sY = N[C@@H](Cc1ccc(OS(=O)(=O)O)cc1)C(=O)O; Asu = N[C@@H](CCCCCC(=O)O)C(=O)O; dAsu = N[C@H](CCCCCC(=O)O)C(=O)O; Suc = O=C(CCC(=O)[*:2])[*:1]; βAla = NCCC(=O)O

Assays:
thrombin [1] = molecular target: T1, thrombin (Homo sapiens, UniProt P00734); assay: anti-thrombin activity; chromogenic assay (Chromozym TH hydrolysis, apparent dissociation constant Ki'); assay type: biochemical; design: 100 μl of human-thrombin prepared at 10 NIH units/ml in aforesaid buffer; conditions: for Ki: apparent dissociation constant, 350 pM human-thrombin, 100 μM Chromozym TH, 37° C.; for Potency: relative to hirudin HV-1 = 1
Method: Anti-thrombin activities were measured by measuring the degree of inhibition of thrombin's hydrolytic activity on synthetic substrate Chromozym TH (Tocylglycil-prolylarginine-4-nitroanilideacetate). This reaction was carried out as follows. […] Here, the molar concentration of aforementioned human-thrombin was determined by the method of active site titration [G. W. Jameson et al., Biochem. J., 131, p107-117 (1973)] using 4-methylunberifenyl-p-guanidinobenzoate as substrate. After the pre-incubation, Chromozym TH (product of Boehringer-Mannheim) was added to a final concentration of 100 μM, and released p-nitroanilide was measured at the wave length of 405 nm, and the initial velocity of the hydrolytic reactions were measured for each of the abovementioned hirudins at various concentrations. From this initial velocity of the hydrolytic reactions, the apparent dissociation constants Ki' were calculated by the method of S. R. Stone et al. [Biochemistry, 25, p4622-4628 (1986)].

[2] = system: V8 protease (product of Sigma); assay: V8 protease in 0.1M sodium-phoshate buffer (pH7.0); conditions: 37° C., up to 1 hour
[3] = system: carboxypeptidase Y (product of Boehringer Mannheim); assay: carboxypeptidase Y in 0.1M sodium-phoshate buffer (pH7.0); conditions: 37° C., up to 30 min.
thrombin [4] = molecular target: T1, thrombin; assay: Inhibitory action against thrombin induced death; assay type: in vivo, mice; conditions: score 0 normal, 1 loss of roll over reflection, 2 death within 20 minutes
Method: To male mice (20-25 g), in non-anaesthesia, thrombin (15 NIH units/10 g) was administered intravenously, and the anti-thrombin activity of the tested compound was evaluated by observing the disappearance of roll over reflection and death as indexes. All the tested compounds were dissolved in saline and 0.05 ml/10 g were administered intravenously 5 min prior to the thrombin injection.

[5] = Prolongation of bleeding time (tail vein puncture wound); assay type: in vivo; conditions: wound 5 minutes after administration, male mice
Method: Samples were injected into male mice (20-25 g) via their tail vein under anaesthesia using pentobarbital (40 mg/kg i.p.). A puncture wound was made by inserting a 21G needle (outer diameter 0.85 mm) into the other side of the tail vein 5 minutes after administration of test compounds, and the bleeding time of the wound was measured.
A filter paper was put on the wound with changes every 15 seconds. Bleeding time is defined as the time required until no red spot is observed on the filter paper.

thrombin [6] = molecular target: T1, thrombin; assay: anti-thrombin activity; clotting assay (coagulation time with fibrinogen as substrate); assay type: biochemical; design: 100 μl of human-thrombin prepared at 10 NIH units/ml in aforesaid buffer; conditions: for IC50: concentration corresponding to 50 thrombin units, human-thrombin 10 NIH units/ml, human-fibrinogen 6 mg/ml, read-out: 50% Inhibition Concentration (converted)
Method: Measurement of anti-thrombin activity was done by looking at anti-coagulant activity as an index using fibrinogen as the substrate. That is, the compounds were dossolved in 200 μl of 0.1 mM Tris-HCl buffer (pH7.5) containing 0.1% polyethyleneglycol-6000, 100 μl of human-thrombin prepared at 10 NIH units/ml in aforesaid buffer, were added 200 μl of human-fibrinogen (Sigma) prepared at 6 mg/ml in aforesaid tris-hydrochloride buffer were added, and the coagulation time of the reaction mixtures were measured. For measuring of coagulation times, coagulation time analyzer (Amelung KC10A) was used. Obtained values were converted into units by using a previously prepared thrombin standard curve. Graphs were prepared by plotting the converted values on the vertical axis, and the concentrations of the compounds on the horizontal axis. In the graphs, the thrombin unit was defined as 100 at a compound concentration of 0. The concentration of compounds corresponding to 50 units were defined as 50% inhibitory concentrations of compounds.

α-chymotrypsin = α-chymotrypsin in 0.1M sodium-phoshate buffer (pH7.0); conditions: 37° C., up to 24 hours

## Val--Val--Tyr--Thr--Asp--Cys--Thr--Glu--Ser--Gly--Gln--Asn--Leu--Cys--Leu--Cys--Glu--Gly--Ser--Asn--Val--Cys--Gly--Gln--Gly--Asn--Lys--Cys--Ile--Leu--Gly--Ser--Asp--Gly--Glu--Lys--Asn--Gln--Cys--Val--Thr--Gly--Glu--Gly--Thr--Pro--Lys--Pro--Gln--Ser--His--Asn--Asp--Gly--Asp--Phe--Glu--Glu--Ile--Pro--Tyr--Tyr(SO3 H)--Tyr--Leu--Gln [Sulfated form of hirudin HV-17 peak 3]
Thrombin [1]
  Ki: 0.0059 nM
  Potency: 1.1

## Gly--Asp--Phe--Glu--Glu--Ile--Pro--Glu--Tyr--Tyr(SO3 H)--Leu--Gln
[2]
  cleaved bond: Glu-Tyr
[3]
  cleaved bond: Leu-Gln; also recorded: Tyr(SO3 H)-Leu
  not cleaved: no Tyr was released (30 min.)

## Val--Val--Tyr--Thr--Asp--Cys--Thr--Glu--Ser--Gly--Gln--Asn--Leu--Cys--Leu--Cys--Glu--Gly--Ser--Asn--Val--Cys--Gly--Gln--Gly--Asn--Lys--Cys--Ile--Leu--Gly--Ser--Asp--Gly--Glu--Lys--Asn--Gln--Cys--Val--Thr--Gly--Glu--Gly--Thr--Pro--Lys--Pro--Gln--Ser--His--Asn--Asp--Gly--Asp--Phe--Glu--Glu--Ile--Pro--Tyr--Tyr(SO3 H)--Tyr(SO3 H)--Leu--Gln [Sulfated form of hirudin HV-17 peak 1]
Thrombin [1]
  Ki: 0.0028 nM
  Potency: 2.3

## CC[C@H](C)[C@H](NC(=O)[C@@H]1CCCN1C(=O)[C@H](CCC(=O)O)NC(=O)[C@H](Cc1ccccc1)NC(=O)[C@H](CC(=O)O)NC(=O)CNC(=O)CCC(=O)O)C(=O)N1CCC[C@H]1C(=O)N[C@@H](CCC(=O)O)C(=O)N[C@@H](Cc1ccc(OS(=O)(=O)O)cc1)C(=O)N[C@@H](Cc1ccc(OS(=O)(=O)O)cc1)C(=O)N[C@@H](CC(C)C)C(=O)N[C@@H](CCC(N)=O)C(=O)O [Sulfated form of (C), Suc--Gly--Asp--Phe--Glu--Pro--Ile--Pro--Glu--Tyr(SO3 H)--Tyr(SO3 H)--Leu--Gln--OH] (Suc-GDFEPIPE[sY][sY]LQ-OH)
Thrombin [4]; 20 mg/kg i.v. 5 min before thrombin 15 NIH units/10 g
  Score: 1.2
Thrombin [4]; 50 mg/kg i.v. 5 min before thrombin 15 NIH units/10 g
  Score: 0.8
Thrombin [4]; 100 mg/kg i.v. 5 min before thrombin 15 NIH units/10 g
  Score: 0.6
[5]; 10 mg/kg via tail vein
  Bleeding time: 277.5 ± 31.5 s
[5]; 20 mg/kg via tail vein
  Bleeding time: 366.0 ± 23.0 s
[5]; 50 mg/kg via tail vein
  Bleeding time: 432.0 ± 33.3 s
Thrombin [6]; calculated using the definition that HV-1 (54-65) potency is 1
  Potency: 88.94
Thrombin [6]
  IC50: 42.9 nM

## GDFEEIPYYYLQ
α-chymotrypsin
  cleaved bond: Tyr-Tyr

## CC[C@H](C)[C@H](NC(=O)[C@@H]1CCCN1C(=O)[C@H](CCC(=O)O)NC(=O)[C@H](Cc1ccccc1)NC(=O)CCC(=O)O)C(=O)N1CCC[C@H]1C(=O)N[C@@H](CCC(=O)O)C(=O)N[C@@H](Cc1ccc(O)cc1)C(=O)N[C@@H](Cc1ccc(O)cc1)C(=O)NCCC(=O)O [(K)] (Suc-FEPIPEYY[βAla]-OH)
Thrombin [6]
  IC50: 24600 nM

## Val--Val--Tyr--Thr--Asp--Cys--Thr--Glu--Ser--Gly--Gln--Asn--Leu--Cys--Leu--Cys--Glu--Gly--Ser--Asn--Val--Cys--Gly--Gln--Gly--Asn--Lys--Cys--Ile--Leu--Gly--Ser--Asp--Gly--Glu--Lys--Asn--Gln--Cys--Val--Thr--Gly--Glu--Gly--Thr--Pro--Lys--Pro--Gln--Ser--His--Asn--Asp--Gly--Asp--Phe--Glu--Glu--Ile--Pro--Tyr--Tyr--Tyr(SO3 H)--Leu--Gln [Sulfated form of hirudin HV-17 peak 2]
Thrombin [1]
  Ki: 0.0043 nM
  Potency: 1.5

## CC[C@H](C)[C@H](NC(=O)[C@@H]1CCCN1C(=O)[C@H](CCC(=O)O)NC(=O)[C@H](Cc1ccccc1)NC(=O)CCC(=O)O)C(=O)N1CCC[C@H]1C(=O)N[C@@H](CCC(=O)O)C(=O)N[C@@H](Cc1ccc(OS(=O)(=O)O)cc1)C(=O)N[C@@H](Cc1ccc(OS(=O)(=O)O)cc1)C(=O)N[C@@H](CC(C)C)C(=O)N[C@@H](CCCCCC(N)=O)C(N)=O [Sulfated form of (X), Suc--Phe--Glu--Pro--Ile--Pro--Glu--Tyr(SO2 H)--Tyr(SO3 H)--Leu--(L)Asu(NH2)NH2] (Suc-FEPIPE[sY][sY]L[Asu](NH2)-NH2)
Thrombin [6]
  IC50: 2000 nM

## CC[C@H](C)[C@H](NC(=O)[C@@H]1CCCN1C(=O)[C@H](CCC(=O)O)NC(=O)[C@H](Cc1ccccc1)NC(=O)CCC(=O)O)C(=O)N1CCC[C@H]1C(=O)N[C@@H](CCC(=O)O)C(=O)N[C@@H](Cc1ccc(O)cc1)C(=O)N[C@@H](Cc1ccc(O)cc1)C(=O)N[C@@H](CC(C)C)C(=O)N[C@H](CCCCCC(=O)OC)C(=O)OC [(U)] (Suc-FEPIPEYYL[dAsu](OMe)-OMe)
Thrombin [6]
  IC50: 32300 nM
